Measured values: the supplement of paper PMC10307832

What was measured:
Assay in all cases: relative viability (nuclei count vs DMSO), 5 days (fraction); higher = more cells survive
EPLC-272H = system: EPLC-272H
In short: (§1)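 Nuclei were stained with Hoechst during a one-step fixation (final 0.05% Triton X-100, 1% formaldehyde, 1 ug/ml Hoechst) carried out 5 days after dosing, then counted on 4× images. The cells, lung cancer lines in 1536-well plates, had been dosed by pin tool the day after seeding with one drug alone or a fixed anchor-drug dose plus five library-drug doses (not always all listed) in √10 steps. Relative viability is the nuclei count in treated wells divided by that in vehicle wells, and each value is the median of duplicate plates.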

NCI-H358 = system: NCI-H358
In short: as §1

NCI-H1793 = system: NCI-H1793
In short: as §1

NCI-H647 = system: NCI-H647
In short: as §1

SW 1573 = system: SW 1573
In short: as §1

NCI-H1734 = system: NCI-H1734
In short: as §1

RERF-LC-KJ = system: RERF-LC-KJ
In short: as §1

ABC-1 = system: ABC-1
In short: as §1

UMC-11 = system: UMC-11
In short: as §1

NCI-H322M = system: NCI-H322M
In short: as §1

NCI-H441 = system: NCI-H441
In short: as §1

CCNC(=O)c1noc(-c2cc(C(C)C)c(O)cc2O)c1-c1ccc(CN2CCOCC2)cc1 [Luminespib] + C[C@]1(O)C[C@@H](c2nc(-c3ccc4ccc(-c5ccccc5)nc4c3)c3c(N)nccn32)C1 [Linsitinib] (partner 1 µM)
relative viability (EPLC-272H; first compound 0.006325 µM): 1.07
relative viability (EPLC-272H; first compound 0.02 µM): 0.727
relative viability (EPLC-272H; first compound 0.06325 µM): 1.11
relative viability (EPLC-272H; first compound 0.2 µM): 1.14
relative viability (NCI-H358; first compound 0.002 µM): 0.828
relative viability (NCI-H358; first compound 0.006325 µM): 0.654
relative viability (NCI-H358; first compound 0.02 µM): 0.649
relative viability (NCI-H358; first compound 0.06325 µM): 0.129
relative viability (NCI-H358; first compound 0.2 µM): 0.111
relative viability (NCI-H1793; first compound 0.002 µM): 0.831
relative viability (NCI-H1793; first compound 0.006325 µM): 0.798
relative viability (NCI-H1793; first compound 0.02 µM): 0.326
relative viability (NCI-H1793; first compound 0.06325 µM): 0.16
relative viability (NCI-H1793; first compound 0.2 µM): 0.147
relative viability (NCI-H647; first compound 0.002 µM): 1.23
relative viability (NCI-H647; first compound 0.006325 µM): 1.26
relative viability (NCI-H647; first compound 0.02 µM): 0.914
relative viability (NCI-H647; first compound 0.06325 µM): 0.0924
relative viability (NCI-H647; first compound 0.2 µM): 0.0826
relative viability (SW 1573; first compound 0.002 µM): 0.88
relative viability (SW 1573; first compound 0.006325 µM): 0.594
relative viability (SW 1573; first compound 0.02 µM): 0.707
relative viability (SW 1573; first compound 0.06325 µM): 0.423
relative viability (SW 1573; first compound 0.2 µM): 0.123
relative viability (NCI-H1734; first compound 0.002 µM): 0.917
relative viability (NCI-H1734; first compound 0.006325 µM): 0.792
relative viability (NCI-H1734; first compound 0.02 µM): 0.7
relative viability (NCI-H1734; first compound 0.06325 µM): 0.258
relative viability (NCI-H1734; first compound 0.2 µM): 0.167
relative viability (RERF-LC-KJ; first compound 0.002 µM): 0.9
relative viability (RERF-LC-KJ; first compound 0.006325 µM): 0.846
relative viability (RERF-LC-KJ; first compound 0.02 µM): 0.976
relative viability (RERF-LC-KJ; first compound 0.06325 µM): 0.968
relative viability (RERF-LC-KJ; first compound 0.2 µM): 0.366
relative viability (ABC-1; first compound 0.002 µM): 0.869
relative viability (ABC-1; first compound 0.006325 µM): 0.941
relative viability (ABC-1; first compound 0.02 µM): 0.676
relative viability (ABC-1; first compound 0.06325 µM): 0.257
relative viability (ABC-1; first compound 0.2 µM): 0.227
relative viability (UMC-11; first compound 0.002 µM): 0.997
relative viability (UMC-11; first compound 0.006325 µM): 0.993
relative viability (UMC-11; first compound 0.02 µM): 0.962
relative viability (UMC-11; first compound 0.06325 µM): 0.648
relative viability (UMC-11; first compound 0.2 µM): 0.181
relative viability (NCI-H322M; first compound 0.002 µM): 0.805
relative viability (NCI-H322M; first compound 0.006325 µM): 0.851
relative viability (NCI-H322M; first compound 0.02 µM): 0.725
relative viability (NCI-H322M; first compound 0.06325 µM): 0.998
relative viability (NCI-H322M; first compound 0.2 µM): 0.963
relative viability (NCI-H441; first compound 0.002 µM): 0.797
relative viability (NCI-H441; first compound 0.006325 µM): 0.5
